Results taken from PMC12314375, “The GTPase κB-Ras is an essential subunit of the RalGAP tumor suppressor complex” (The Journal of Biological Chemistry, 2025).
Substitutions are numbered along the chain they refer to.

Key:
κB-Ras1–RGα2N complex = target: T1, κB-Ras1–RGα2N complex (Homo sapiens, UniProt Q9NYS0); assay: X-ray crystal structure, […] Å; conditions: Mg2+; 100 µM GNP added; nucleotide-binding pocket of κB-Ras1
T1 construct: gene NKIRAS1; GST-κB-Ras1 (2-175; 1-175 in Results) coexpressed in bacteria with 6xHis-SUMO-RGα2N (2-255, N-terminal domain); SUMO protease added, purified essentially as before, SEC
T1 sequence (Q9NYS0 2-175): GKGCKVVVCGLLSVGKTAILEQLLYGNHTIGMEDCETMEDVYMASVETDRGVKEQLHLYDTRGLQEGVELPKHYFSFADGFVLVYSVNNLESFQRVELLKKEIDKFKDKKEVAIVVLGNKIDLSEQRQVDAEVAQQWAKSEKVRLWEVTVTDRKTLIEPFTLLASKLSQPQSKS
T1 sequence (Q2PPJ7 2-255 partner): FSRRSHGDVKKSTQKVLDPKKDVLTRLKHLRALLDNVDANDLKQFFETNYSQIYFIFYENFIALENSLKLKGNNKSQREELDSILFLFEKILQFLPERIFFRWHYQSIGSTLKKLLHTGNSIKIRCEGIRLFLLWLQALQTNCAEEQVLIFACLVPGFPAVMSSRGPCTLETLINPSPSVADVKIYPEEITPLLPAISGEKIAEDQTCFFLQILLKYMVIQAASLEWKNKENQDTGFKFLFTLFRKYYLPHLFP

κB-Ras1 [1] = target: T2, κB-Ras1 (Homo sapiens, UniProt Q9NYS0); assay: intrinsic GTP hydrolysis, HPLC of GTP/GDP; type: biochemical; conditions: 100 µM GTP, 24 h, 5 mM MgCl2, pH 7.5
T2 construct: gene NKIRAS1; residues 2-175, GST fusion from E. coli Rosetta, GST cut on column with PreScission protease, SEC
T2 sequence (Q9NYS0 2-175): T1 sequence (Q9NYS0 2-175)

κB-Ras1 [2] = target: T3, κB-Ras1 (Homo sapiens, UniProt Q9NYS0, L65Q); assay: intrinsic GTP hydrolysis, HPLC of GTP/GDP; type: biochemical; conditions: 100 µM GTP, 24 h, 5 mM MgCl2, pH 7.5
T3 construct: gene NKIRAS1; residues 2-175, GST fusion from E. coli Rosetta, GST cut on column with PreScission protease, SEC
T3 sequence (Q9NYS0 2-175 L65Q): T1 sequence (Q9NYS0 2-175) with L64Q

κB-Ras1 [3] = target: T4, κB-Ras1 (Homo sapiens, UniProt Q9NYS0, G64A); assay: intrinsic GTP hydrolysis, HPLC of GTP/GDP; type: biochemical; conditions: 100 µM GTP, 24 h, 5 mM MgCl2, pH 7.5
T4 construct: gene NKIRAS1; residues 2-175, GST fusion from E. coli Rosetta, GST cut on column with PreScission protease, SEC
T4 sequence (Q9NYS0 2-175 G64A): T1 sequence (Q9NYS0 2-175) with G63A

Compound	X-ray crystal structure, 2.72 Å (κB-Ras1–RGα2N complex)	intrinsic GTP hydrolysis, HPLC of GTP/GDP (κB-Ras1 [1])	intrinsic GTP hydrolysis, HPLC of GTP/GDP (κB-Ras1 [2])	intrinsic GTP hydrolysis, HPLC of GTP/GDP (κB-Ras1 [3])
Nc1nc2c(ncn2[C@@H]2O[C@H](COP(=O)(O)OP(=O)(O)NP(=O)(O)O)[C@@H](O)[C@H]2O)c(=O)[nH]1 [GNP, 5′-guanylyl imidodiphosphate]	nucleotide-binding pocket of κB-Ras1 is occupied by a magnesium ion and the nonhydrolyzable GTP analog	–	–	–
Nc1nc2c(ncn2[C@@H]2O[C@H](COP(=O)(O)OP(=O)(O)OP(=O)(O)O)[C@@H](O)[C@H]2O)c(=O)[nH]1 [GTP]	–	intrinsic GTP hydrolysis by K-Ras, Rheb, κB-Ras1 WT, and variants measured in vitro	GTP hydrolysis was also not altered by this mutation	This substitution did not reduce intrinsic GTP hydrolysis activity of κB-Ras1 in vitro
